Data on 20 molecules can be found in patent publication US8017612B2, “Piperazine compound and use thereof as a HCV polymerase inhibitor” (priority 2006, dated 2011).

The target of assay [1] is T1, HCV polymerase (NS5B) type 1a (Hepatitis C virus genotype 1a, UniProt P26664).
T1 construct: made in house; host or cells: Escherichia coli (by the 'similar method' of the 1b enzyme)
Description: Assay of enzyme (HCV polymerase) inhibitory activity, type 1a enzyme. The conditions noted are these: HCV polymerase inhibitory activity IC50, 1a, type 1a enzyme. It is filed as biochemical, HCV type 1a (cloned from the blood of patients). The essentials:
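Patient-derived type 1a NS5B (C-terminal 47-aa deletion, His-tagged, E. coli-expressed) at 1.5 μg/ml was reacted with 5 μg/ml 3′UTR-containing substrate RNA, 50 μM ATP/GTP/CTP, 2 μM UTP plus [3H]UTP, pH 7.5, 25° C for 60 min. TCA-precipitated RNA radioactivity was counted; IC50 from ± compound.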

Assay [2] has as its target T2, HCV polymerase (NS5B) type 1b (Hepatitis C virus genotype 1b, UniProt P26663).
T2 construct: a region encoding NS5B (J Virol 1991 March, 65(3), 1105-13, 544 amino acids after deletion of 47 amino acids on the C-terminal); 6xHis (C); made in house; host or cells: Escherichia coli
Briefly: Assay of enzyme (HCV polymerase) inhibitory activity, type 1b enzyme. Format: biochemical, HCV BK strain (type 1b). The conditions noted are these: HCV polymerase inhibitory activity IC50, 1b, type 1b enzyme. The gist of the method:
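NS5B from HCV BK strain (type 1b), C-terminal 47 aa deleted, C-terminal His6-tagged, E. coli-expressed, 0.5 μg/ml, with ~450 nt substrate RNA carrying the 3′ UTR (polyU, 3′X) at 5 μg/ml. Incubation 60 min at 25 °C with 50 μM ATP/GTP/CTP, 2 μM UTP plus [3H]UTP, pH 7.5 Tris.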

Where a name gives a salt, the structure may show the parent alone. Some results are limits rather than exact numbers.

In general, IC50 refers to the concentration at which inhibition is half-maximal. Regarding `Cc1ncc2sc(N3CCN(S(=O)(=O)c4ccc(OC(F)(F)F)cc4)[C@@H](C(=O)NCc4ccc(OC(F)(F)F)cc4)C3)nc2n1` [Example 908, (R)-4-(5-methyl-thiazolo[4,5-d]pyrimidin-2-yl)-1-(4-trifluoromethoxy-benzenesulfonyl)-piperazine-2-carboxylic acid 4-trifluoromethoxy-benzylamide], the half-maximal inhibitory concentration (IC50) in assay [1] and in assay [2] was under 100 nM each time.
Consider `CCCc1nc(C)c(CNC(=O)[C@H]2CN(c3nc4cn[nH]c(=O)c4s3)CCN2S(=O)(=O)c2ccc(OC(F)(F)F)cc2)s1` [Example 909, (R)-4-(7-oxo-6,7-dihydro-thiazolo[4,5-d]pyridazin-2-yl)-1-(4-trifluoromethoxy-benzenesulfonyl)-piperazine-2-carboxylic acid (4-methyl-2-propyl-thiazol-5-ylmethyl)-amide], for which the half-maximal inhibitory concentration (IC50) in assay [1] is 100 to 1000 nM; in assay [2] it was under 100 nM.
The corresponding values for `Cc1nc2nc(N3CCN(S(=O)(=O)c4ccc(OC(F)(F)F)cc4)[C@@H](C(=O)NCc4ccc(OC(F)(F)F)cc4)C3)sc2c(=O)[nH]1` [Example 910, (R)-4-(5-methyl-7-oxo-6,7-dihydro-thiazolo[4,5-d]pyrimidin-2-yl)-1-(4-trifluoromethoxy-benzenesulfonyl)-piperazine-2-carboxylic acid 4-trifluoromethoxy-benzylamide] are under 100 nM and under 100 nM.
The corresponding values for `CCC(F)(F)c1ccc(CNC(=O)[C@H]2CN(c3nc4nc(C)[nH]c(=O)c4s3)CCN2S(=O)(=O)c2ccc(OC(F)(F)F)cc2)cc1` [Example 911, (R)-4-(5-methyl-7-oxo-6,7-dihydro-thiazolo[4,5-d]pyrimidin-2-yl)-1-(4-trifluoromethoxy-benzenesulfonyl)-piperazine-2-carboxylic acid 4-(1,1-difluoro-propyl)-benzylamide] are under 100 nM and under 100 nM.
The corresponding values for `O=C(NCc1ccc(OC(F)(F)F)cc1)[C@H]1CN(c2nc3nc(Br)ncc3s2)CCN1S(=O)(=O)c1ccc(OC(F)(F)F)cc1` [Example 912, (R)-4-(5-bromo-thiazolo[4,5-d]pyrimidin-2-yl)-1-(4-trifluoromethoxy-benzenesulfonyl)-piperazine-2-carboxylic acid 4-trifluoromethoxy-benzylamide] are under 100 nM and under 100 nM.
For the molecule `CCCc1ccc(CNC(=O)[C@H]2CN(c3nc4nc(Cl)ncc4s3)CCN2S(=O)(=O)c2ccc(OC(F)(F)F)cc2)cc1` [Example 913, (R)-4-(5-chloro-thiazolo[4,5-d]pyrimidin-2-yl)-1-(4-trifluoromethoxy-benzenesulfonyl)-piperazine-2-carboxylic acid 4-propyl-benzylamide], the IC50 in assay [1] and in assay [2] was under 100 nM each time.
With `CCCc1ccc(CNC(=O)[C@H]2CN(c3nc4ncncc4s3)CCN2S(=O)(=O)c2ccc(OC(F)(F)F)cc2)cc1` [Example 914, (R)-4-thiazolo[4,5-d]pyrimidin-2-yl-1-(4-trifluoromethoxy-benzenesulfonyl)-piperazine-2-carboxylic acid 4-propyl-benzylamide], the IC50 in assay [1] and in assay [2] was under 100 nM throughout.
For `NC(=O)c1nncc2sc(N3CCN(S(=O)(=O)c4ccc(OC(F)(F)F)cc4)[C@@H](C(=O)NCc4ccc(OC(F)(F)F)cc4)C3)nc12` [Example 915, 2-[(R)-4-(4-trifluoromethoxy-benzenesulfonyl)-3-(4-trifluoromethoxy-benzylcarbamoyl)-piperazin-1-yl]-thiazolo[4,5-d]pyridazine-4-carboxylic acid amide], the IC50 in assay [1] and in assay [2] was under 100 nM in each case.
As to `CNC(=O)c1nncc2sc(N3CCN(S(=O)(=O)c4ccc(OC(F)(F)F)cc4)[C@@H](C(=O)NCc4ccc(OC(F)(F)F)cc4)C3)nc12` [Example 916, 2-[(R)-4-(4-trifluoromethoxy-benzenesulfonyl)-3-(4-trifluoromethoxy-benzylcarbamoyl)-piperazin-1-yl]-thiazolo[4,5-d]pyridazine-4-carboxylic acid methylamide], the IC50 in assay [1] and in assay [2] was under 100 nM each time.
Take `Cc1nncc2sc(N3CCN(S(=O)(=O)c4ccc(OC(F)(F)F)cc4)[C@@H](C(=O)NCc4ccc(OC(F)(F)F)cc4)C3)nc12` [Example 917, (R)-4-(4-methyl-thiazolo[4,5-d]pyridazin-2-yl)-1-(4-trifluoromethoxy-benzenesulfonyl)-piperazine-2-carboxylic acid 4-trifluoromethoxy-benzylamide]: the concentration for half-maximal inhibition (IC50) in assay [1] and in assay [2] was under 100 nM throughout.
Consider `O=C(NCc1ccc(OC(F)(F)F)cc1)[C@H]1CN(c2nc3nc(Cl)ncc3s2)CCN1S(=O)(=O)c1ccc(OC(F)F)cc1` [Example 918, (R)-4-(5-chloro-thiazolo[4,5-d]pyrimidin-2-yl)-1-(4-difluoromethoxy-benzenesulfonyl)-piperazine-2-carboxylic acid 4-trifluoromethoxy-benzylamide], for which the concentration for half-maximal inhibition (IC50) in assay [1] and in assay [2] was under 100 nM in each case.
For `O=C(NCc1ccc(OC(F)(F)F)cc1)[C@H]1CN(c2nc3ncncc3s2)CCN1S(=O)(=O)c1ccc(OC(F)F)cc1` [Example 919, (R)-1-(4-difluoromethoxy-benzenesulfonyl)-4-thiazolo[4,5-d]pyrimidin-2-yl-piperazine-2-carboxylic acid 4-trifluoromethoxy-benzylamide], the 50% inhibitory concentration (IC50) in assay [1] and in assay [2] was under 100 nM each time.
Turning to `Cc1cc(=O)n2nc(N3CCN(S(=O)(=O)c4ccc(OC(F)(F)F)cc4)[C@@H](C(=O)NCc4ccc(OC(F)(F)F)cc4)C3)sc2n1` [Example 920, (R)-4-(7-methyl-5-oxo-5H-[1,3,4]thiadiazolo[3,2-a]pyrimidin-2-yl)-1-(4-trifluoromethoxy-benzenesulfonyl)-piperazine-2-carboxylic acid 4-trifluoromethoxy-benzylamide], the IC50 in assay [1] is 100 to 1000 nM; in assay [2], under 100 nM.
Take `Cc1ncc2nc(N3CCN(S(=O)(=O)c4ccc(OC(F)(F)F)cc4)[C@@H](C(=O)NCc4ccc(OC(F)(F)F)cc4)C3)sc2n1` [Example 921, (R)-4-(5-methyl-thiazolo[5,4-d]pyrimidin-2-yl)-1-(4-trifluoromethoxy-benzenesulfonyl)-piperazine-2-carboxylic acid 4-trifluoromethoxy-benzylamide]: the half-inhibitory concentration (IC50) in assay [1] was 100 to 1000 nM; in assay [2], under 100 nM.
In the case of `O=C(NCc1ccc(OC(F)(F)F)cc1)[C@H]1CN(c2nn3cnnc3s2)CCN1S(=O)(=O)c1ccc(OC(F)(F)F)cc1` [Example 922, (R)-4-[1,2,4]triazolo[3,4-b][1,3,4]thiadiazol-6-yl-1-(4-trifluoromethoxy-benzenesulfonyl)-piperazine-2-carboxylic acid 4-trifluoromethoxy-benzylamide], the IC50 in assay [1] and in assay [2] was under 100 nM in each case.
Take `O=C1CCC(N2CCN(S(=O)(=O)c3ccc(OC(F)(F)F)cc3)[C@@H](C(=O)NCc3ccc(OC(F)(F)F)cc3)C2)CN1` (stereo partly drawn) [Example 923, (R)-4-(6-oxo-piperidin-3-yl)-1-(4-trifluoromethoxy-benzenesulfonyl)-piperazine-2-carboxylic acid 4-trifluoromethoxy-benzylamide]: the IC50 in assay [1] and in assay [2] was 100 to 1000 nM throughout.
`O=C(NCc1ccc(OC(F)(F)F)cc1)[C@H]1CN(c2ccc(=O)[nH]c2)CCN1S(=O)(=O)c1ccc(OC(F)(F)F)cc1` [Example 924, (R)-4-(6-oxo-1,6-dihydro-pyridin-3-yl)-1-(4-trifluoromethoxy-benzenesulfonyl)-piperazine-2-carboxylic acid 4-trifluoromethoxy-benzylamide hydrochloride]: the concentration for half-maximal inhibition (IC50) in assay [1] and in assay [2] was 100 to 1000 nM in each case.
For `Cc1ncc2sc(N3CCN(S(=O)(=O)c4ccc(C(F)(F)F)cc4)[C@@H](C(=O)NCc4ccc(OC(F)(F)F)cc4)C3)nc2n1` [Example 925, (R)-4-(5-methyl-thiazolo[4,5-d]pyrimidin-2-yl)-1-(4-trifluoromethyl-benzenesulfonyl)-piperazine-2-carboxylic acid 4-trifluoromethoxy-benzylamide], the IC50 in assay [1] and in assay [2] was under 100 nM throughout.
As for `CCC(F)(F)c1ccc(CNC(=O)[C@H]2CN(c3nc4nc(C)ncc4s3)CCN2S(=O)(=O)c2ccc(OC(F)(F)F)cc2)cc1` [Example 926, (R)-4-(5-methyl-thiazolo[4,5-d]pyrimidin-2-yl)-1-(4-trifluoromethoxy-benzenesulfonyl)-piperazine-2-carboxylic acid 4-(1,1-difluoro-propyl)-benzylamide], the IC50 in assay [1] and in assay [2] was under 100 nM in each case.
As for `Cc1nc(Cl)c2sc(N3CCN(S(=O)(=O)c4ccc(C(F)(F)F)cc4)[C@@H](C(=O)NCc4ccc(OC(F)(F)F)cc4)C3)nc2n1` [Example 927, (R)-4-(7-chloro-5-methyl-thiazolo[4,5-d]pyrimidin-2-yl)-1-(4-trifluoromethyl-benzenesulfonyl)-piperazine-2-carboxylic acid 4-trifluoromethoxy-benzylamide], the half-inhibitory concentration (IC50) in assay [1] and in assay [2] was under 100 nM each time.
